Test results reported in the OPERA property sets (Mansouri et al. 2018).

Point of comparison: `CC(C)OC(=O)CSc1ccc([N+](=O)[O-])cc1`, logP 2.79. Against it:
- COC(=O)CS(=O)c1ccc([N+](=O)[O-])cc1 (configuration not stated) — lower, 0.8
- COC(=O)CS(=O)(=O)c1ccc([N+](=O)[O-])cc1Cl — lower, 1.45
- COC(=O)CS(=O)c1ccc([N+](=O)[O-])cc1Cl (configuration not stated) — lower, 1.35
- COC(=O)CS(=O)c1ccc(Cl)cc1[N+](=O)[O-] (configuration not stated) — lower, 1.29
- CC(C)OC(=O)CS(=O)(=O)c1ccccc1[N+](=O)[O-] — lower, 1.72
- CC(C)OC(=O)CS(=O)(=O)c1ccc([N+](=O)[O-])cc1Cl — lower, 2.4
- CC(C)OC(=O)CS(=O)c1ccc([N+](=O)[O-])cc1 (configuration not stated) — lower, 1.64
- CC(C)OC(=O)CSc1ccccc1[N+](=O)[O-] — within 0.2 log units, 2.76
- CC(C)OC(=O)CS(=O)c1ccc([N+](=O)[O-])cc1[N+](=O)[O-] (configuration not stated) — lower, 1.61
- CC(C)OC(=O)CS(=O)c1ccccc1[N+](=O)[O-] (configuration not stated) — lower, 1.59
- CC(C)OC(=O)CSc1ccc([N+](=O)[O-])cc1Cl — higher, 3.2
- COC(=O)CS(=O)(=O)c1ccc(Cl)cc1[N+](=O)[O-] — lower, 1.3
- COC(=O)CSc1ccc(Cl)cc1[N+](=O)[O-] — lower, 2.24
- CC(C)OC(=O)CS(=O)c1ccc(Cl)cc1[N+](=O)[O-] (configuration not stated) — lower, 2.22
- COC(=O)CS(=O)(=O)c1ccc([N+](=O)[O-])cc1 — lower, 0.78
- CC(C)OC(=O)CSc1ccc(Cl)cc1[N+](=O)[O-] — higher, 3
- COC(=O)CSc1ccc([N+](=O)[O-])cc1[N+](=O)[O-] — lower, 2.05
- CC(C)OC(=O)CS(=O)c1ccc([N+](=O)[O-])cc1Cl (configuration not stated) — lower, 2.01
- CC(C)OC(=O)CSc1ccc([N+](=O)[O-])cc1[N+](=O)[O-] — within 0.2 log units, 2.81
- CC(C)OC(=O)CS(=O)(=O)c1ccc(Cl)cc1[N+](=O)[O-] — lower, 2.45
- COC(=O)CS(=O)c1ccc([N+](=O)[O-])cc1[N+](=O)[O-] (configuration not stated) — lower, 0.63
- COC(=O)CS(=O)(=O)c1ccccc1[N+](=O)[O-] — lower, 0.78
- COC(=O)CS(=O)c1ccccc1[N+](=O)[O-] (configuration not stated) — lower, 0.74
- COC(=O)CSc1ccccc1[N+](=O)[O-] — lower, 1.88
- CC(C)OC(=O)CS(=O)(=O)c1ccc([N+](=O)[O-])cc1 — lower, 1.8
- COC(=O)CSc1ccc([N+](=O)[O-])cc1Cl — lower, 2.26
